Reference: US9066990B2, “Preparation for restenosis prevention” (priority 2001, dated 2015)

Assay: Solubility in the contrast agent or physiological NaCl solution

SMILES: CC(=O)O[C@H]1C(=O)[C@@]2(C)[C@H]([C@H](OC(=O)c3ccccc3)[C@]3(O)C[C@H](OC(=O)[C@H](O)[C@@H](NC(=O)c4ccccc4)c4ccccc4)C(C)=C1C3(C)C)[C@]1(OC(C)=O)CO[C@@H]1C[C@@H]2O [paclitaxel, 4,10-β-diacetoxy-13-α-((2R,3S)-3-ben-zamido-2-hydroxy-3-phenylpropionyloxy)-2α-benzoyloxy-5-β, 20-epoxy-1,7-β-dihydroxy-11-taxene-9-one]
- appearance of preparation after mixing (4.2 mg paclitaxel in 0.5 ml of ethanol added at room temperature to 50 ml of 0.9% NaCl solution): becomes turbid immediately after mixing
- particles under a microscope (4.2 mg paclitaxel in 50 ml of 0.9% NaCl solution): Large aggregations of fine particles
- appearance of solution after mixing (7.6 mg paclitaxel in 0.5 mg of ethanol added at room temperature to 50 ml Ultravist-370): clear solution without any turbidity
- particles under a microscope (7.6 mg paclitaxel in 50 ml Ultravist-370): No particles can be identified
- stability of the solution (7.6 mg paclitaxel in 50 ml Ultravist-370, room temperature): remains stable for several days
